# Results published in ChEMBL document CHEMBL4507297, “Data for DCP probe PF-04457845” (2021).
# Columns and labels:
# [1] = target: High affinity nerve growth factor receptor (Homo sapiens) (UniProt P04629); conditions: Compound concentration 1000.0 nM
# [2] = target: Calcium/calmodulin-dependent protein kinase type 1D (Homo sapiens) (UniProt Q8IU85); conditions: Compound concentration 1000.0 nM
# [3] = target: BMP-2-inducible protein kinase (Homo sapiens) (UniProt Q9NSY1); conditions: Compound concentration 1000.0 nM
# [4] = target: Serine/threonine-protein kinase 17A (Homo sapiens) (UniProt Q9UEE5); conditions: Compound concentration 1000.0 nM
# [5] = target: Membrane-associated tyrosine- and threonine-specific cdc2-inhibitory kinase (Homo sapiens) (UniProt Q99640); conditions: Compound concentration 1000.0 nM
# Membrane-associated tyrosine- and threonine-specific cdc2-inhibitory kinase (Homo sapiens), sequence (Q99640 whole entry): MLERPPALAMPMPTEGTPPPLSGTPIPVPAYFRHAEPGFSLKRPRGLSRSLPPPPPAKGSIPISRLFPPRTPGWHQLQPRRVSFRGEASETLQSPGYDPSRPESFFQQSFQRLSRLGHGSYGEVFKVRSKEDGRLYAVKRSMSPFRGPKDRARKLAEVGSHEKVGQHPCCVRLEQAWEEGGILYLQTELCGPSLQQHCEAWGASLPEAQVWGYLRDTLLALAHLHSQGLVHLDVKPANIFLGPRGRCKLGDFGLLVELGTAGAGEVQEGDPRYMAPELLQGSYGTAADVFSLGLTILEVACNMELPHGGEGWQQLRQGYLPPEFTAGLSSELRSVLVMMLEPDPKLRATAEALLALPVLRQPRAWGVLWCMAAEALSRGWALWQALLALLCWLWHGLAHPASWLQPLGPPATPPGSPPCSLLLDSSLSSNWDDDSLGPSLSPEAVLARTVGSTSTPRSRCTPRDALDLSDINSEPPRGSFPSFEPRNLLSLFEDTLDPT
# [6] = tested on: Tyrosine-protein kinase ABL1 (Homo sapiens), P00519 [Q252H]; conditions: Compound concentration 1000.0 nM
# [7] = target: Phosphatidylinositol 4,5-bisphosphate 3-kinase catalytic subunit delta isoform (Homo sapiens) (UniProt O00329); conditions: Compound concentration 1000.0 nM
# [8] = target: Serine/threonine-protein kinase 33 (Homo sapiens) (UniProt Q9BYT3); conditions: Compound concentration 1000.0 nM
# [9] = tested on: Tyrosine-protein kinase ABL1 (Homo sapiens), P00519 [T315I]; conditions: Compound concentration 1000.0 nM
# [10] = target: Tyrosine-protein kinase Fer (Homo sapiens) (UniProt P16591); conditions: Compound concentration 1000.0 nM
# [11] = target: Serine/threonine-protein kinase TAO3 (Homo sapiens) (UniProt Q9H2K8); conditions: Compound concentration 1000.0 nM
# Serine/threonine-protein kinase TAO3 (Homo sapiens), sequence (Q9H2K8 whole entry): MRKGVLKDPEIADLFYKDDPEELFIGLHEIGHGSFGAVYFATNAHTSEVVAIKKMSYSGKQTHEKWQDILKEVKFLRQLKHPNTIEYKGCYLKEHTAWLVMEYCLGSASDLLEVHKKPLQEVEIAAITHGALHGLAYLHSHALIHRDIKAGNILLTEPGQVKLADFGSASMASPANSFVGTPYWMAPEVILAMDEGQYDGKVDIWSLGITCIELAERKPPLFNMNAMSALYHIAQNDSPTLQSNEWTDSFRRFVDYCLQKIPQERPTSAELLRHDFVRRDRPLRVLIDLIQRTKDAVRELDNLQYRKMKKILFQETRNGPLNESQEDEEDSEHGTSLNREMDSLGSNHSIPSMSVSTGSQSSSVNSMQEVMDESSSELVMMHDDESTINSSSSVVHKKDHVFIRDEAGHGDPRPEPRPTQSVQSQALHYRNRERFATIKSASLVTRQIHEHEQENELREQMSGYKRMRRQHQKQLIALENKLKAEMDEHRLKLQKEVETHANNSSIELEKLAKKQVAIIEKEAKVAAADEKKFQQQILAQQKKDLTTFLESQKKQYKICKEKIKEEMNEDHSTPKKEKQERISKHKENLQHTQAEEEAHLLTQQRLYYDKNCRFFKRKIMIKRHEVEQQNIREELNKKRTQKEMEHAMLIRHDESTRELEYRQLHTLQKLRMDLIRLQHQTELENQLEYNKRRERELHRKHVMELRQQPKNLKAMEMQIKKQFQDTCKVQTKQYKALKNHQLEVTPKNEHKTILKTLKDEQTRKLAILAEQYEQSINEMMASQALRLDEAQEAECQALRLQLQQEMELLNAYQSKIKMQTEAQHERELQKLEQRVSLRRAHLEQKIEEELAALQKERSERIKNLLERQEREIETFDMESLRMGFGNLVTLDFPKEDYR
# [12] = target: D(2) dopamine receptor (Homo sapiens) (UniProt P14416); conditions: Compound concentration 10.0 uM
# [13] = target: Serine/threonine-protein kinase Sgk3 (Homo sapiens) (UniProt Q96BR1); conditions: Compound concentration 1000.0 nM
# [14] = target: SRSF protein kinase 3 (Homo sapiens) (UniProt Q9UPE1); conditions: Compound concentration 1000.0 nM
# [15] = target: Serine/threonine-protein kinase D1 (Homo sapiens) (UniProt Q15139); conditions: Compound concentration 1000.0 nM
# Serine/threonine-protein kinase D1 (Homo sapiens), sequence (Q15139 whole entry): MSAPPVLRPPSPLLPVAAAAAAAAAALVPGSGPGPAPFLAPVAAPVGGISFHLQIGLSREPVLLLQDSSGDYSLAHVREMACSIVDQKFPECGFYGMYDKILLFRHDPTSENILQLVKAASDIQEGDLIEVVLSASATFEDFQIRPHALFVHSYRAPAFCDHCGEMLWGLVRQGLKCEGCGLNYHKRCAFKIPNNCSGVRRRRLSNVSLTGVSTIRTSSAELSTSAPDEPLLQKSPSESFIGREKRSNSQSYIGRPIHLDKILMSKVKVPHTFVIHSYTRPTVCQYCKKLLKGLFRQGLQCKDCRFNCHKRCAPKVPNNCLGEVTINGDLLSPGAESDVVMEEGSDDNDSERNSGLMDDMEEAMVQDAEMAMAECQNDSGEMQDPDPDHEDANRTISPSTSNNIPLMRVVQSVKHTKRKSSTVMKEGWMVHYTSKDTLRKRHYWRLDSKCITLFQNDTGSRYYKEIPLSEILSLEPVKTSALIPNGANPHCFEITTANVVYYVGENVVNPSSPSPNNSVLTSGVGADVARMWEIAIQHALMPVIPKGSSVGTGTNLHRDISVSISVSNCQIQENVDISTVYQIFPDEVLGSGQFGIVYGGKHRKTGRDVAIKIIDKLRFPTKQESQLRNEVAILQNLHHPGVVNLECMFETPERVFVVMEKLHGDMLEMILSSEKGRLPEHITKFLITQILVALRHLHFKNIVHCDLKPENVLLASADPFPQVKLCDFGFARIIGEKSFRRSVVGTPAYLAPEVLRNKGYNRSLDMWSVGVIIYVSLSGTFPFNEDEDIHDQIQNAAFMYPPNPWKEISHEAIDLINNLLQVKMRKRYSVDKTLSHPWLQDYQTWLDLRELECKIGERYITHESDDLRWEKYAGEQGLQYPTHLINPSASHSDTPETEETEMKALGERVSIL
# [16] = target: Beta-adrenergic receptor kinase 1 (Homo sapiens) (UniProt P25098); conditions: Compound concentration 1000.0 nM
# [17] = target: RAC-beta serine/threonine-protein kinase (Homo sapiens) (UniProt P31751); conditions: Compound concentration 1000.0 nM
# [18] = target: Tyrosine-protein kinase ITK/TSK (Homo sapiens) (UniProt Q08881); conditions: Compound concentration 1000.0 nM
# Tyrosine-protein kinase ITK/TSK (Homo sapiens), sequence (Q08881 whole entry): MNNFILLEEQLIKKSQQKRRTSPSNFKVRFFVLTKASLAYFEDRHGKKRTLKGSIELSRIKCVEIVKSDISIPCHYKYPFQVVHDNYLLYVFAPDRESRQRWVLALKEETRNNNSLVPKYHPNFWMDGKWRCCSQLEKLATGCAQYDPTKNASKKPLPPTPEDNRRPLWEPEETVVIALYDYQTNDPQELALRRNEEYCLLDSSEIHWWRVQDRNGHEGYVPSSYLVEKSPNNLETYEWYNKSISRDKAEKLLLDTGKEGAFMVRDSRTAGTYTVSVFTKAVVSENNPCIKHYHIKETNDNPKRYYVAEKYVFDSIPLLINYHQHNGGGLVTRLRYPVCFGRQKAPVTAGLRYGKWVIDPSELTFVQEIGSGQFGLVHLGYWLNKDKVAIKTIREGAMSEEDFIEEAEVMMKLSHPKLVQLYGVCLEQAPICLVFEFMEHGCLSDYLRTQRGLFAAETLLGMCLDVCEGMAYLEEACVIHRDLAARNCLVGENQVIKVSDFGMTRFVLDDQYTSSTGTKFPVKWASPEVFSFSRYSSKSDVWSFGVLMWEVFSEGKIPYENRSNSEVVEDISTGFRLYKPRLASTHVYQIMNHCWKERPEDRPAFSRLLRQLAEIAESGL
# [19] = target: D(4) dopamine receptor (Homo sapiens) (UniProt P21917); conditions: Compound concentration 10.0 uM
# [20] = target: Proto-oncogene tyrosine-protein kinase ROS (Homo sapiens) (UniProt P08922); conditions: Compound concentration 1000.0 nM
# [21] = target: Serine/threonine-protein kinase MRCK alpha (Homo sapiens) (UniProt Q5VT25); conditions: Compound concentration 1000.0 nM
# [22] = target: Casein kinase I isoform alpha (Homo sapiens) (UniProt P48729); conditions: Compound concentration 1000.0 nM
# Casein kinase I isoform alpha (Homo sapiens), sequence (P48729 2-337 limits assumed): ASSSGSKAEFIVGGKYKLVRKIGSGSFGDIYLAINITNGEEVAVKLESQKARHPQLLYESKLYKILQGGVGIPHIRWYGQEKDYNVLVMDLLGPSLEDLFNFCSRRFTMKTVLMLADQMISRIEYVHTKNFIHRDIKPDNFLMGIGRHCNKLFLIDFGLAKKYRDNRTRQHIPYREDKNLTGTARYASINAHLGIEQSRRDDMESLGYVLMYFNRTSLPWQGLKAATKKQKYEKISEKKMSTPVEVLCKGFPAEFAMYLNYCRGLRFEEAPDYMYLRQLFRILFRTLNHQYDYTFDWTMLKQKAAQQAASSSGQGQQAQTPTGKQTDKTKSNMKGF
# [23] = target: Serine/threonine-protein kinase DCLK2 (Homo sapiens) (UniProt Q8N568); conditions: Compound concentration 1000.0 nM
# [24] = target: Mitogen-activated protein kinase kinase kinase 1 (Homo sapiens) (UniProt Q13233); conditions: Compound concentration 1000.0 nM
# [25] = target: Cyclin-dependent kinase 11B (Homo sapiens) (UniProt P21127); conditions: Compound concentration 1000.0 nM
# [26] = target: Ephrin type-A receptor 5 (Homo sapiens) (UniProt P54756); conditions: Compound concentration 1000.0 nM
# [27] = tested on: ALK tyrosine kinase receptor (Homo sapiens), Q9UM73 [C1156Y]; conditions: Compound concentration 1000.0 nM
# ALK tyrosine kinase receptor (Homo sapiens), Q9UM73 [C1156Y], sequence (Q9UM73 whole entry C1156Y, looked up): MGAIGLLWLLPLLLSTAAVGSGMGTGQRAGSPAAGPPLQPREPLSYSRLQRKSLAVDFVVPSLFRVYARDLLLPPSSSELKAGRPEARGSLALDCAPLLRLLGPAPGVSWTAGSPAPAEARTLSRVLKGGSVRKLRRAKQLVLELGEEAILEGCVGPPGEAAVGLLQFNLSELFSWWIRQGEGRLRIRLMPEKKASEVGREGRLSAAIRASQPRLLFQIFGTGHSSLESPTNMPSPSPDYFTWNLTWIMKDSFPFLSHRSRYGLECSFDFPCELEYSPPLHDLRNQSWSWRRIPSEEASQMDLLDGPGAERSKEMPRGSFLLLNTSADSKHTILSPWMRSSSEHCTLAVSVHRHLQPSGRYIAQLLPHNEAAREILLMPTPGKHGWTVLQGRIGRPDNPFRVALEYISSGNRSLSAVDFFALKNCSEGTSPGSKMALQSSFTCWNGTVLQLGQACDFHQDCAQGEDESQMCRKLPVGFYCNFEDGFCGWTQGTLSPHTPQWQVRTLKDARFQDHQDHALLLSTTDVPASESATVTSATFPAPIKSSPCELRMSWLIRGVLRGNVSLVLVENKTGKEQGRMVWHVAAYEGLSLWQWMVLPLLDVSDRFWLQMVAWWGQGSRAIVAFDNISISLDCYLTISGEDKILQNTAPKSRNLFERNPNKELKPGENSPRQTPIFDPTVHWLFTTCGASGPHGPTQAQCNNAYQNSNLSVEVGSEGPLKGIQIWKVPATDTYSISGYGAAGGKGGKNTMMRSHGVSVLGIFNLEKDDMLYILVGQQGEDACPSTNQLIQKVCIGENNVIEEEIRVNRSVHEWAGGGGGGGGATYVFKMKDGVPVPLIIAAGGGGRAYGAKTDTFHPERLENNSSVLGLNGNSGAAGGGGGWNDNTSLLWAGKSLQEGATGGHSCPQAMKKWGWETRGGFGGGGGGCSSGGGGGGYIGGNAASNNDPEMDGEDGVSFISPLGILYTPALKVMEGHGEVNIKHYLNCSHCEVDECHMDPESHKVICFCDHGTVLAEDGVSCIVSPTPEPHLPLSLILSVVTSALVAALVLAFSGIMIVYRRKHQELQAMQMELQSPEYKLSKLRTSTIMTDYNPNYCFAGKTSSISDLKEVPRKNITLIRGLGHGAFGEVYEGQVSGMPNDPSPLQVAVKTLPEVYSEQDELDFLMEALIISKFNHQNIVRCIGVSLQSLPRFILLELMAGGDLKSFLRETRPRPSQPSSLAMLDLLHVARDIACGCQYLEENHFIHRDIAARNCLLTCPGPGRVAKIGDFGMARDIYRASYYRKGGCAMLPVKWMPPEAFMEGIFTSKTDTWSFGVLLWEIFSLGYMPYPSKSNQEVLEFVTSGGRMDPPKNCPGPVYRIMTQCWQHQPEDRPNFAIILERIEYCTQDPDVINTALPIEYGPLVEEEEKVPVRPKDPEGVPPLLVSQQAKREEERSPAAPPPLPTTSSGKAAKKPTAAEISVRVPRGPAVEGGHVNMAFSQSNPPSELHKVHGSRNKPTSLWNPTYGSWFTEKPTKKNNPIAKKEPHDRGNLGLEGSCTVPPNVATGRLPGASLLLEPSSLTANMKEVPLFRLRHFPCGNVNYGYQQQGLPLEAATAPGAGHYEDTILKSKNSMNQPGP
# [28] = target: Serine/threonine-protein kinase 32A (Homo sapiens) (UniProt Q8WU08); conditions: Compound concentration 1000.0 nM
# [29] = target: 1-phosphatidylinositol 3-phosphate 5-kinase (Homo sapiens) (UniProt Q9Y2I7); conditions: Compound concentration 1000.0 nM
# [30] = target: Serine/threonine-protein kinase 24 (Homo sapiens) (UniProt Q9Y6E0); conditions: Compound concentration 1000.0 nM
# [31] = target: Mitogen-activated protein kinase 9 (Homo sapiens) (UniProt P45984); conditions: Compound concentration 1000.0 nM
# [32] = target: Dual specificity mitogen-activated protein kinase kinase 2 (Homo sapiens) (UniProt P36507); conditions: Compound concentration 1000.0 nM
# [33] = target: Serine/threonine-protein kinase TBK1 (Homo sapiens) (UniProt Q9UHD2); conditions: Compound concentration 1000.0 nM
# [34] = target: Serine/threonine-protein kinase PRP4 homolog (Homo sapiens) (UniProt Q13523); conditions: Compound concentration 1000.0 nM
# [35] = target: Ephrin type-A receptor 4 (Homo sapiens) (UniProt P54764); conditions: Compound concentration 1000.0 nM
# [36] = target: Serine/threonine-protein kinase 36 (Homo sapiens) (UniProt Q9NRP7); conditions: Compound concentration 1000.0 nM
# [37] = target: Phosphatidylinositol 4-kinase beta (Homo sapiens) (UniProt Q9UBF8); conditions: Compound concentration 1000.0 nM
# [38] = target: Tyrosine-protein kinase Lck (Homo sapiens) (UniProt P06239); conditions: Compound concentration 1000.0 nM
# [39] = target: Hormonally up-regulated neu tumor-associated kinase (Homo sapiens) (UniProt P57058); conditions: Compound concentration 1000.0 nM
# [40] = target: Cyclin-dependent kinase 16 (Homo sapiens) (UniProt Q00536); conditions: Compound concentration 1000.0 nM
# [41] = target: D(3) dopamine receptor (Homo sapiens) (UniProt P35462); conditions: Compound concentration 10.0 uM
# [42] = target: Proto-oncogene tyrosine-protein kinase Src (Homo sapiens) (UniProt P12931); conditions: Compound concentration 1000.0 nM
# [43] = target: Mitogen-activated protein kinase kinase kinase 3 (Homo sapiens) (UniProt Q99759); conditions: Compound concentration 1000.0 nM
# [44] = target: Histamine H2 receptor (Homo sapiens) (UniProt P25021); conditions: Compound concentration 10.0 uM
# [45] = target: Non-receptor tyrosine-protein kinase TYK2 (Homo sapiens) (UniProt P29597); conditions: Compound concentration 1000.0 nM
compound,measurement,setting,value
O=C(Nc1cccnn1)N1CC(C/C=C/c2cncc(Oc3ccc(C(F)(F)F)cn3)n2)C1,residual activity,[1],82%
same,residual activity,[2],100%
same,residual activity,[3],100%
same,residual activity,[4],100%
same,residual activity,[5],100%
same,residual activity,[6],81%
same,residual activity,[7],64%
same,residual activity,[8],100%
same,residual activity,[9],60%
same,residual activity,[10],100%
same,residual activity,[11],82%
same,inhibition,[12],13.7%
same,residual activity,[13],87%
same,residual activity,[14],100%
same,residual activity,[15],100%
same,residual activity,[16],96%
same,residual activity,[17],100%
same,residual activity,[18],100%
same,inhibition,[19],12.3%
same,residual activity,[20],100%
same,residual activity,[21],100%
same,residual activity,[22],88%
same,residual activity,[23],100%
same,residual activity,[24],66%
same,residual activity,[25],100%
same,residual activity,[26],85%
same,residual activity,[27],81%
same,residual activity,[28],100%
same,residual activity,[29],100%
same,residual activity,[30],98%
same,residual activity,[31],72%
same,residual activity,[32],95%
same,residual activity,[33],72%
same,residual activity,[34],100%
same,residual activity,[35],100%
same,residual activity,[36],100%
same,residual activity,[37],91%
same,residual activity,[38],100%
same,residual activity,[39],89%
same,residual activity,[40],81%
same,inhibition,[41],-9.59%
same,residual activity,[42],100%
same,residual activity,[43],79%
same,inhibition,[44],-3.96%
same,residual activity,[45],82%
O=C(Nc1cccnn1)N1CCC(=Cc2cccc(Oc3ccc(C(F)(F)F)cn3)c2)CC1,residual activity,[1],100%
same,residual activity,[2],97%
same,residual activity,[3],100%
same,residual activity,[4],79%
same,residual activity,[5],100%
same,residual activity,[6],99%
same,residual activity,[7],81%
same,residual activity,[8],100%
same,residual activity,[9],100%
same,residual activity,[10],74%
same,residual activity,[11],42%
same,inhibition,[12],1.84%
same,residual activity,[13],93%
same,residual activity,[14],81%
same,residual activity,[15],100%
same,residual activity,[16],100%
same,residual activity,[17],81%
same,residual activity,[18],100%
same,inhibition,[19],-6.93%
same,residual activity,[20],80%
same,residual activity,[21],95%
same,residual activity,[22],100%
same,residual activity,[23],81%
same,residual activity,[24],100%
same,residual activity,[25],100%
same,residual activity,[26],98%
same,residual activity,[27],100%
same,residual activity,[28],100%
same,residual activity,[29],100%
same,residual activity,[30],100%
same,residual activity,[31],100%
same,residual activity,[32],100%
same,residual activity,[33],100%
same,residual activity,[34],100%
same,residual activity,[35],100%
same,residual activity,[36],100%
same,residual activity,[37],100%
same,residual activity,[38],80%
same,residual activity,[39],87%
same,residual activity,[40],100%
same,inhibition,[41],4.08%
same,residual activity,[42],88%
same,residual activity,[43],100%
same,inhibition,[44],17.3%
same,residual activity,[45],100%
